Each structure is given as a SMILES string.

Test [1] deals with vaginal epithelium and uterus of ovarectomized female Sprague-Dawley rats. Description: Estrogenic activity in bilaterally ovarectomized rats (vaginal cornification, uterine wet weight). Format: in vivo, rat. The note with it: positive control gavaged daily 5 mg/kg BW.
Description: Phytoestrogenic enhancing activities of PLE were evaluated in normal and ovariectomised rats at 150 and 300 mg/kg doses. Estrogenic activity of the alcoholic extract was assessed in bilaterally ovarectomized female Sprague-Dawley rats taking percentage vaginal cornification, and uterine wet weight as parameters of assessment. Ovarectomized female rats (9 rats per group) given distilled water were used as a negative control, while rats gavaged daily with 5 mg/kg BW diethylstilbesterol were used as a positive control. At the end of treatment period of 14 days, rats were euthanized; the uteri were dissected and weighed, thereafter.
Test [2] concerns vaginal epithelium in the immature female mice. The note with it: cited from earlier work.

For the compound `CC/C(=C(/CC)c1ccc(O)cc1)c1ccc(O)cc1` [synthetic estrogen, diethylstilbesterol], in test [1], the “cornification of the vaginal epithelium” value is reported as “induced a cornification of the vaginal epithelium as early as the third day of treatment”.

With `CC1(C)[C@H]2C(=COc3cc(O)ccc32)[C@]2(O)C(=O)C[C@]3(O)C[C@H]1[C@H]2[C@H]3O` [Miroestrol], in test [2], the “cornification of the vaginal epithelium” value is on record as “produced cornification of the vaginal epithelium”.

These data come from patent US20120276225A1, “PHYTOESTROGENIC NUTRACEUTICAL COMPOSITION FROM PALM LEAF EXTRACT” (UNIVERSITI PUTRA MALAYSIA, priority 2009, published 2012).
